The test system of one data set is mesangial cells. Briefly: Effect on anti-Thy-1 antibody nephritis in rats (count of cells in the glomeruli). The format is in vivo. The following applies: rats with anti-Thy-1 antibody nephritis; suspension (1mg/1ml) orally, 1 ml/100g of body weight twice a day for 7 days; kidneys removed on day 8; number of cells per glomerulus, mean ± standard error; Control 104.3±3.3, intact animal 67.25; *: P<0.05, **: P<0.01 (Dunnett's test). From the text:
Anti-Thy-1 antibody-induced nephritis is a model of glomerulonephritis constructed by utilizing the reaction between the Thy-1 antigen occurring as a membrane protein of mesangial cells and the antibody to the antigen. In this model, injuries to mesangial cells and lesions associated with mesangial cell proliferation are found. While a large majority of types of chronic glomerulonephritis in human are those of proliferative glomerulonephritis which show mesangial cell proliferation and increases in mesangial matrix as cardinal pathologic features, anti-Thy-1 antibody nephritis is regarded as a model of this human proliferative glomerulonephritis, particularly mesangial proliferative nephritis [Ishizaki et al., Acta. Pathol. Jpn., 36, 1191 (1986)].
Rats were used in groups of 7.
Preparation of the antibody was carried out in accordance with the method of Ishizaki et al. referred to above. Thus, an adjuvant suspension of rat thymocytes was prepared and subcutaneously administered to rabbits for immunization. After two booster doses, the blood was collected and the serum separated was subjected to inactivation and absorption to provide an antiserum (anti-Thy-1 antibody).
A predetermined amount of the antiserum was injected intravenously from the tail vein of rats to induce nephritis. Starting the following day after injection, a suspension (1mg/1ml) of the test drug was administered orally at a dosage of 1 ml/100g of body weight of rat twice a day for 7 days. On day 8 following the beginning of administration, the animals were sacrificed and the kidneys were removed. The kidney was fixed in Carnoy's fixative and, in the routine manner, paraffin sections were prepared and stained with hematoxyline stain for microscopy. For histopathological evaluation, the number of cells in the glomeruli (mainly mesangial cells) in each tissue preparation was counted under a light microscope. Statistical analysis was performed by Dunnett's test.

In the next data set the test system is mice. Kind of data set: Acute toxicity. The format is in vivo. The following applies: suspension orally at 300 mg/kg, general condition observed for a week after administration. How it is done: Each of the compounds in Preparation Examples 1, 5, 6, 33, 34, 39, and 48 was administered.

For the compound `Cl.Cn1c(-c2ccccc2)c(C(=O)N2CCN(c3ccc([N+](=O)[O-])cn3)CC2)c2ccccc21` [Preparation Example 48, 1-(1-Methyl-2-phenylindol-3-ylcarbonyl)-4-(5-nitro-2-pyridyl)piperazine hydrochloride], in the data set with mesangial cells, the “Number of mesangial cells a)” value is 89.2±3.1*. Moreover, the deaths entry with mice is “No deaths were observed”.

With `Cc1ccc2c(c1)c(C(=O)N1CCN(c3cccnc3)CC1)c(-c1ccccc1)n2C.Cl.Cl` [Preparation Example 33, 1-(1,5-Dimethyl-2-phenylindol-3-ylcarbonyl)-4-(3-pyridyl)piperazine dihydrochloride], the “Number of mesangial cells a)” value in the data set on mesangial cells is listed as 88.5±3.7**. For the same compound, the deaths entry in the data set on mice is listed as “No deaths were observed”.

On to `Cc1ccc2c(c1)c(C(=O)N1CCN(c3ccncc3)CC1)c(-c1ccccc1)n2C.Cl` [Preparation Example 34, 1-(1,5-Dimethyl-2-phenylindol-3-ylcarbonyl)-4-(4-pyridyl)piperazine hydrochloride], for which the “Number of mesangial cells a)” value in the data set with mesangial cells is 87.1±5.7**. Besides, the deaths entry in the data set with mice was “No deaths were observed”.

Turning to `Cn1c(-c2ccccc2)c(C(=O)N2CC[N+]([O-])(c3ccccn3)CC2)c2ccccc21` [Preparation Example 5, 1-(1-Methyl-2-phenylindol-3-ylcarbonyl)-4-(2-pyridyl)piperazine-4-oxide], in the data set with mice, the deaths result was “No deaths were observed”.

Take `Cc1ccc2c(c1)c(C(=O)N1CCN(c3ccccn3)CC1)c(-c1ccccc1)n2C.Cl` [Preparation Example 1, 1-(1,5-Dimethyl-2-phenylindol-3-ylcarbonyl)-4-(2-pyridyl)piperazine hydrochloride]: the “Number of mesangial cells a)” value in the data set with mesangial cells is on record as 90.3±2.2*. In addition, the deaths entry in the data set with mice is “No deaths were observed”.

Turning to `Cc1cc2c(C(=O)N3CCN(c4ccncc4)CC3)c(-c3ccccc3)n(C)c2cc1C.Cl` [Preparation Example 39, 1-(1,5,6-Trimethyl-2-phenylindol-3-ylcarbonyl)-4-(4-pyridyl)piperazine hydrochloride], the deaths entry with mice is given as “No deaths were observed”.

Regarding `Cl.Cn1c(-c2ccccc2)c(C(=O)N2CCN(c3ccccn3)CC2)c2ccccc21` [Preparation Example 6, 1-(1-Methyl-2-phenylindol-3-ylcarbonyl)-4-(2-pyridyl)piperazine hydrochloride], the deaths result with mice is on record as “No deaths were observed”.
